The source of these data is patent publication US10986838B2, “Herbicides” (SYNGENTA PARTICIPATIONS AG, priority 2016, dated 2021).

What all share (assay type): in vivo
Assay [1] concerns Lolium perenne (LOLPE). Nature of the assay: Pre-emergence herbicidal activity (B1). The conditions noted are these: Test 1b, 1000 g/ha, evaluated after 13 days, 5=total damage to plant, 0=no damage to plant. As for the experimental part:
(§1) B1 Pre-Emergence Herbicidal Activity Seeds of a variety of test species were sown in standard soil in pots: Triticum aestivium (TRZAW), Avena fatua (AVEFA), Alopecurus myosuroides (ALOMY), Echinochloa crus-galli (ECHCG), Lolium perenne (LOLPE), Zea Mays (ZEAMX), Abutilon theophrasti (ABUTH), Amaranthus retroflexus (AMARE) and Setaria faberi (SETFA). After cultivation for one day (pre-emergence) under controlled conditions in a glasshouse (at 24/16° C., day/night; 14 hours light; 65% humidity), the plants were sprayed with an aqueous spray solution derived from the formulation of the technical active ingredient in acetone/water (50:50) solution containing 0.5% Tween 20 (polyoxyethelyene sorbitan monolaurate, CAS RN 9005-64-5). The test plants were then grown in a glasshouse under controlled conditions (at 24/16° C., day/night; 14 hours light; 65% humidity) and watered twice daily. After 13 days, the test was evaluated (5=total damage to plant; 0=no damage to plant). Tables B1a and B1b Control of Weed Species by Compound of Formula (I) after Pre-Emergence Application

The subject of assay [2] is Amaranthus retroflexus (AMARE). Nature of the assay: Pre-emergence herbicidal activity (B1). The conditions noted are these: Test 1b, 1000 g/ha, evaluated after 13 days, 5=total damage to plant, 0=no damage to plant. As for the experimental part:
as §1

The test system of assay [3] is Echinochloa crus-galli (ECHCG). Nature of the assay: Pre-emergence herbicidal activity (B1). To be noted: Test 1b, 1000 g/ha, evaluated after 13 days, 5=total damage to plant, 0=no damage to plant. The protocol: as §1
Assay [4] deals with Zea Mays (ZEAMX). Nature of the assay: Pre-emergence herbicidal activity (B1). The conditions noted are these: Test 1b, 1000 g/ha, evaluated after 13 days, 5=total damage to plant, 0=no damage to plant. The protocol: as §1
Assay [5] deals with Setaria faberi (SETFA). Nature of the assay: Pre-emergence herbicidal activity (B1). The conditions noted are these: Test 1b, 1000 g/ha, evaluated after 13 days, 5=total damage to plant, 0=no damage to plant. As for the experimental part: as §1
Assay [6] has as its system Abutilon theophrasti (ABUTH). The experiment in a line: Pre-emergence herbicidal activity (B1). The conditions noted are these: Test 1b, 1000 g/ha, evaluated after 13 days, 5=total damage to plant, 0=no damage to plant. The protocol:
as §1

Assay [7] concerns Lolium perenne (LOLPE). Nature of the assay: Post-emergence herbicidal activity (B2). The conditions noted are these: Test B2b, 1000 g/ha, evaluated after 13 days, 5=total damage to plant, 0=no damage to plant. As for the experimental part: (§2) B2 Post-Emergence Herbicidal Activity Seeds of a variety of test species were sown in standard soil in pots: Triticum aestivium (TRZAW), Avena fatua (AVEFA), Alopecurus myosuroides (ALOMY), Echinochloa crus-galli (ECHCG), Lolium perenne (LOLPE), Zea Mays (ZEAMX), Abutilon theophrasti (ABUTH), Amaranthus retroflexus (AMARE) and Setaria faberi (SETFA). After 8 days cultivation (post-emergence) under controlled conditions in a glasshouse (at 24/16° C., day/night; 14 hours light; 65% humidity), the plants were sprayed with an aqueous spray solution derived from the formulation of the technical active ingredient in acetone/water (50:50) solution containing 0.5% Tween 20 (polyoxyethelyene sorbitan monolaurate, CAS RN 9005-64-5). The test plants were then grown in a glasshouse under controlled conditions (at 24/16° C., day/night; 14 hours light; 65% humidity) and watered twice daily. After 13 days, the test was evaluated (5=total damage to plant; 0=no damage to plant). Tables B2a and B2b Control of Weed Species by Compound of Formula (I) after Post-Emergence Application

Assay [8] has as its system Amaranthus retroflexus (AMARE). The experiment in a line: Post-emergence herbicidal activity (B2). To be noted: Test B2b, 1000 g/ha, evaluated after 13 days, 5=total damage to plant, 0=no damage to plant. The protocol: as §2
Assay [9] relates to Echinochloa crus-galli (ECHCG). Nature of the assay: Post-emergence herbicidal activity (B2). To be noted: Test B2b, 1000 g/ha, evaluated after 13 days, 5=total damage to plant, 0=no damage to plant. The protocol: as §2
Assay [10] concerns Zea Mays (ZEAMX). The experiment in a line: Post-emergence herbicidal activity (B2). To be noted: Test B2b, 1000 g/ha, evaluated after 13 days, 5=total damage to plant, 0=no damage to plant. As for the experimental part: as §2
Assay [11] concerns Setaria faberi (SETFA). The experiment in a line: Post-emergence herbicidal activity (B2). To be noted: Test B2b, 1000 g/ha, evaluated after 13 days, 5=total damage to plant, 0=no damage to plant. The protocol: as §2
In assay [12] the test system is Abutilon theophrasti (ABUTH). The experiment in a line: Post-emergence herbicidal activity (B2). To be noted: Test B2b, 1000 g/ha, evaluated after 13 days, 5=total damage to plant, 0=no damage to plant. The protocol:
as §2

For `CNc1ccc(-c2cncc(F)c2)nc1C(F)(F)F` [Compound A5], the LOLPE damage score in assay [1] worked out at 1; in assay [7], 4. In addition, the AMARE damage score in assay [2] came out at 2; in assay [8], 1. Further, the ECHCG damage score in assay [3] is given as 2; in [9], 4. Besides, the ZEAMX damage score worked out at 4 in [4] and 5 in assay [10]. Further, the SETFA damage score in assay [5] and in assay [11] was 5 in each case. In addition, the ABUTH damage score in assay [6] and in assay [12] was 1 each time.

Take `CNc1ccc(-c2cncc(C)c2)nc1C(F)(F)F` [Compound A6]: the LOLPE damage score in [1] came out at 0; in [7], 1. Further, the AMARE damage score in [2] was 1; in assay [8] it was 0. For the same molecule, the results for the ECHCG damage score in assay [3] and in assay [9] were 0 and 1, respectively. Besides, the ZEAMX damage score in assay [4] is 0; in assay [10], 1. The results for the SETFA damage score in assay [5] and in assay [11] were 1 and 3, respectively. The ABUTH damage score is given as 1 in assay [6] and 0 in assay [12].

As for `CNc1ccc(-c2cncc(C(F)(F)F)c2)nc1C(F)(F)F` [Compound A7], the LOLPE damage score in assay [1] stood at 0; in assay [7], 1. Also, the AMARE damage score in assay [2] and in assay [8] was 1 throughout. In addition, the values for the ECHCG damage score in assay [3] and in assay [9] were 0 and 1, respectively. The ZEAMX damage score in assay [4] worked out at 0; in assay [10], 1. Also, the SETFA damage score in assay [5] and in assay [11] was 3 in each case. Besides, the ABUTH damage score stood at 1 in assay [6] and 0 in assay [12].

As for `Cc1nc(-c2cncc(F)c2)ccc1N` [Compound A8], the LOLPE damage score in assay [1] came to 1; in assay [7], 3. For the same molecule, the AMARE damage score in assay [2] and in assay [8] was 0 in each case. For the same molecule, the ECHCG damage score in assay [3] was 2; in assay [9], 4. Also, the ZEAMX damage score is 3 in assay [4] and 5 in assay [10]. Further, the SETFA damage score in assay [5] and in assay [11] was 5 in each case. Besides, the ABUTH damage score in assay [6] and in assay [12] was 0 throughout.

`N#Cc1nc(-c2cncc(F)c2)ccc1N` [Compound A9, 3-amino-6-(5-fluoro-3-pyridyl)pyridine-2-carbonitrile]: the LOLPE damage score is on record as 0 in assay [1] and 1 in assay [7]. For the same molecule, the AMARE damage score in assay [2] and in assay [8] was 1 throughout. The ECHCG damage score in assay [3] and in [9] was 4 in each case. Besides, the ZEAMX damage score in assay [4] was found to be 2; in assay [10] it was 4. For the same molecule, the SETFA damage score in [5] and in [11] was 4 in each case. Also, the ABUTH damage score in assay [6] and in assay [12] was 1 each time.

With `CNc1ccc(-c2cncc(OC)c2)nc1C(F)(F)F` [Compound A10], the LOLPE damage score is on record as 0 in assay [1] and 1 in assay [7]. Also, the AMARE damage score in assay [2] and in [8] was 1 each time. The ECHCG damage score was found to be 0 in [3] and 1 in assay [9]. Besides, the ZEAMX damage score in assay [4] came to 1; in [10], 2. The SETFA damage score in [5] stood at 2; in assay [11], 3. For the same molecule, the ABUTH damage score in [6] worked out at 1; in assay [12], 0.

For the molecule `CNc1ccc(-c2cccnc2)nc1C(F)(F)F` [Compound A11], the values for the LOLPE damage score in assay [1] and in assay [7] were 1 and 4, respectively. Further, the AMARE damage score in [2] and in assay [8] was 1 in each case. Besides, the values for the ECHCG damage score in assay [3] and in [9] were 2 and 4, respectively. Further, the figures for the ZEAMX damage score in assay [4] and in [10] were 1 and 2, respectively. Moreover, the SETFA damage score in assay [5] and in [11] was 5 throughout. The ABUTH damage score in [6] and in assay [12] was 1 each time.

For the molecule `Cc1nc(-c2cncc(C(F)(F)F)c2)ccc1N` [Compound A12], the LOLPE damage score in assay [1] and in [7] was 0 in each case. The AMARE damage score in assay [2] and in [8] was 0 in each case. Further, the ECHCG damage score was 0 in [3] and 1 in [9]. Further, the ZEAMX damage score is 0 in assay [4] and 1 in [10]. In addition, the SETFA damage score in [5] was found to be 0; in [11] it was 1. The ABUTH damage score in assay [6] and in assay [12] was 0 in each case.

On to `COc1cncc(-c2ccc(N)c(C)n2)c1` [Compound A13], for which the LOLPE damage score in [1] and in assay [7] was 0 in each case. The AMARE damage score in [2] worked out at 0; in assay [8] it was 1. Further, the ECHCG damage score in assay [3] is reported as 0; in [9], 1. Besides, the ZEAMX damage score was 0 in [4] and 2 in [10]. For the same molecule, the SETFA damage score in [5] was 0; in [11], 1. Further, the ABUTH damage score in assay [6] and in assay [12] was 0 each time.

In the case of `Cc1nc(-c2cncnc2)ccc1N` [Compound A14], the LOLPE damage score in [1] and in assay [7] was 1 each time. Moreover, the AMARE damage score is 0 in assay [2] and 2 in [8]. Also, the ECHCG damage score is reported as 1 in [3] and 2 in assay [9]. The ZEAMX damage score in [4] was 1; in assay [10], 2. In addition, the SETFA damage score in assay [5] was 2; in assay [11], 3. Further, the ABUTH damage score in assay [6] and in assay [12] was 0 throughout.

In the case of `CNc1ccc(-c2cncnc2)nc1C` [Compound A15], the LOLPE damage score came out at 0 in assay [1] and 1 in assay [7]. The AMARE damage score is 0 in [2] and 1 in assay [8]. Also, the ECHCG damage score in [3] is reported as 1; in [9], 2. Also, the ZEAMX damage score in [4] and in [10] was 1 in each case. Also, the SETFA damage score is on record as 1 in assay [5] and 2 in assay [11]. In addition, the ABUTH damage score in [6] and in [12] was 0 throughout.

Consider `CC(Nc1ccc(-c2cncc(F)c2)nc1C(F)(F)F)c1cccc(C(F)(F)F)c1` (stereo not drawn) [Compound A16], for which the figures for the LOLPE damage score in assay [1] and in assay [7] were 0 and 1, respectively. Besides, the AMARE damage score in assay [2] and in assay [8] was 0 in each case. For the same molecule, the ECHCG damage score was 1 in assay [3] and 3 in [9]. Moreover, the ZEAMX damage score in assay [4] is listed as 1; in [10] it was 3. Moreover, the SETFA damage score in assay [5] turned out to be 4; in assay [11], 5. Moreover, the ABUTH damage score in [6] and in assay [12] was 0 each time.
